Measurements reported in publication PMC12830207, “Targeting the protein–protein interaction between the CDC37 cochaperone and client kinases by an allosteric RAF dimer breaker” (The Journal of Biological Chemistry, 2025).

How the values were obtained:
[1] = test system: HSP90–CDC37 complex; conditions: cited from earlier work
Description: Unlike conventional HSP90 inhibitors, braftide preserves HSP90 activity while disrupting CDC37–client interactions, minimizing cytotoxicity and enhancing therapeutic precision. Braftide's ability to destabilize RAF through CDC37 inhibition may offer an alternative to high-dose HSP90 inhibitors, mitigating their associated side effects. […] While most HSP90–CDC37 inhibitors focus on HSP90 ATP-competitive inhibition ([6]), emerging ...

[2] = test system: MAPK proteins (BRAF, CRAF, MEK, pMEK, ERK, pERK); experiment: Immunoblot of MAPK proteins in HCT116 cells; assay type: cell-based
Method: (§1) Western blot band densities were quantified with ImageJ software (National Institutes of Health) and normalized to the indicated loading control. Statistical significance was determined through one-/two-way ANOVA, where indicated, followed by Tukey's honest significant difference post hoc test with corresponding p values (∗p < 0.05, ∗∗p < 0.002, ∗∗∗p < 0.0002, and ∗∗∗∗p < 0.0001). All graph bars represent the mean ± SD with individual data points per biological replicate with corresponding p values.

[3] = test system: HCT116 cells; experiment: WST-1 cell viability assay, HCT116; assay type: cell-based; conditions: HCT116, no braftide, 24 h, WST-1; read-out: EC50 of 17-AAG alone, HCT116
Method: HCT116 and WM3629 cells were seeded onto polylysine-coated, clear-bottomed, 96-well plates at 15(10)^3 cells per well and allowed to incubate for 24 h. Cells were treated with braftide and 17-AAG mixtures at indicated concentrations for 24 h (37 °C). The WST-1 cell viability assay was carried out according to the manufacturer's protocols (Roche; 11644807001) for 4 h, and absorbance readings were taken at 450 nM in a CLARIOstar plate reader. For the dose–response curves of braftide and 17-AAG, the data were fit to the 4-parameter logistic equation (dose–response fitting equation) in GraphPad Prism (Dotmatics): y=A1+(A2−A1)÷(1+10^(LOGx0−x)p)
Error bars are indicative of the SEM of each point.

[4] = test system: HSP90; conditions: cited from earlier work
Description: However, this approach often requires high dosages, making cells more susceptible to thermal damage and inducing HSR1 expression ([10]). […] ATP competitive inhibitors for RAF kinase encou ...

[5] = test system: ERK; conditions: cited from earlier work
Description: The RAF kinase family, comprising ARAF, BRAF, and CRAF, is one of the well-studied clients of CDC37. RAF kinase is a core component of the mitogen-activated protein kinase (MAPK) (RAS–RAF–mitogen-activated protein kinase kinase [MEK]–extracellular signal–regulated kinase [ERK]) pathway, governing cell proliferation, survival, senescence, differentiation, and migration ([18]). […] While ATP-competitive inhibitors like vemurafenib, dabrafenib, and encorafenib ...

[6] = test system: CDC37; experiment: Photo-crosslinking and streptavidin pull-down, CDC37; assay type: binding, human (HEK293); conditions: 10 μM peptide, lysate of HEK293 with CDC37-FLAG/BRAF-V5, 4 h, 4 °C, UV 1 h, streptavidin
Method: (§2) Transfected HEK293 cells were treated with the indicated treatments and harvested in cold PBS. The cell pellets were lysed in modified RIPA buffer (50 mM Hepes [pH 7.4], 150 mM sodium chloride, 0.1% NP-40 [IGEPAL630], 1 mM EDTA, 5% glycerol, 1 mM PMSF, 20 mM β-glycerophosphate, 2.5 mM sodium pyrophosphate, and 1 protease inhibitor tablet) and incubated with rotation for 2 h, 4 °C. Cell lysates were then incubated with resin (FLAG-M2 magnetic, Sigma [M8823] or streptavidin, Pierce [88816]) for 2 h to bind the tagged BRAF–CRAF or BTN–braftide-crosslinked proteins. The samples were washed five times in a modified RIPA buffer and quenched in loading dye (BTN IP elution was supplemented with 20 mM biotin in loading dye) and heated at 95 °C, 5 min. Samples were analyzed via immunoblot.
(§3) HEK293 cells were cotransfected with CDC37 (FLAG-tagged) and BRAF (V5-tagged). Cells were harvested in cold PBS, and pellets were lysed in modified RIPA buffer with rotation for 2 h, 4 °C. Cell lysate (1 mg) was incubated with 0 or 10 μM BTN–braftide/JAK2, with rotation for 4 h, at 4 °C. Samples were then exposed to […] UV light for 1 h over ice. After UV treatment, samples were incubated with Pierce Streptavidin magnetic beads (catalog no.: 88816) for 17 h at 4 °C, to bind BTN–braftide. […] Samples were analyzed via immunoblot.

[7] = test system: BRAF; experiment: Photo-crosslinking and streptavidin pull-down, BRAF; assay type: binding, human (HEK293); conditions: 10 μM peptide, lysate of HEK293 with CDC37-FLAG/BRAF-V5, 4 h, 4 °C, UV 1 h, streptavidin
Method: as §2, §3

[8] = test system: HSP90; experiment: Photo-crosslinking and streptavidin pull-down, HSP90; assay type: binding, human (HEK293); conditions: 10 μM peptide, HEK293 lysate, 4 h, 4 °C, UV 1 h, streptavidin
Method: as §2, §3

[9] = test system: MAPK proteins / pERK; experiment: Immunoblot of protein degradation and pERK with control peptide in HEK293; assay type: cell-based, human (HEK293); conditions: HEK293 cotransfected with CDC37 and RAF (Fig. S2A)
Method: as §1

[10] = test system: BRAF–CDC37 interaction; experiment: NanoBiT luminescence CDC37–RAF interaction reporter assay, BRAF^SmBiT–CDC37^LgBiT; assay type: cell-based, human (HEK293); conditions: HEK293, 10 µM vemurafenib, 4 hrs, Fig. S8
Description: NanoBiT cytomegalovirus MCS BiBiT vector, which contains a BRAF N terminal fused with LgBiT and CRAF N terminal fused with SmBiT, was purchased from Promega. CDC37 LgBiT and CRAF SmBiT was generated using the standard Gibson Assembly (NEB HiFi Assembly) using NanoBiT BiBiT as the vector and following primers: 5′ […] 3′, 5′ […] 3′, 5′ […] 3′, 5′ […] 3′, and CDC37 LgBiT and BRAF SmBiT was generated using the standard Gibson Assembly using NanoBiT BiBiT as the vector and following primers: 5′ […] 3′, 5′ […] 3′, 5′ […] 3′, 5′ […] 3′. Primers were designed to introduce H20A, N22A, I23A triple mutation within the CDC37 FLAG tag and for NanoBiT construct CDC37(HNI/A) LgBit and BRAF SmBiT. Primers were designed to introduce the desired substitutions. The forward primer sequence was 5′ gccgcc[…] 3′, and the reverse primer sequence was 5′ gggggc[…] 3′. Site-directed mutagenesis was carried out using the Q5 Site-Directed Mutagenesis Kit (NEB; E0554) following the manufacturer's protocol.
Twenty-four hours post-transfection, cells were trypsinized, pelleted, resuspended in OptiMEM + 4% fetal bovine serum, and reseeded onto a 96-well plate at 5(10)^4 cells per well and then incubated at 37 °C overnight. Cells were pretreated with 1 μM bortezomib for 5 h and then braftide for 4 h at 0 and 25 μM. After treatment, 10 μM furimazine substrate was added to each well, and luminescence readings were taken at 470 to 480 nm using a CLARIOstar plate reader. Statistical significance was determined through a paired t test where indicated, followed by Tukey's honest significant difference post hoc test with corresponding p values (∗p < 0.05, ∗∗p < 0.01, and ∗∗∗p < 0.001). All graph bars represent the mean ± SD with individual data points per biological replicate with corresponding p values.

[11] = test system: CRAF; experiment: Photo-crosslinking and streptavidin pull-down, endogenous CRAF; assay type: binding, human (HEK293); conditions: 10 μM peptide, HEK293 lysate, 4 h, 4 °C, UV 1 h, streptavidin
Method: as §2, §3

[12] = test system: AKT1; experiment: Photo-crosslinking and streptavidin pull-down, AKT1; assay type: binding, human (HEK293); conditions: 10 μM peptide, HEK293 lysate, 4 h, 4 °C, UV 1 h, streptavidin
Method: as §2, §3

[13] = biological target: HSP90 (endogenous, HEK293), P07900; experiment: co-immunoprecipitation (IP: FLAG), immunoblot band quantification; conditions: chain shown with the change, representative blot

## C[C@@H]1O[C@@H](O[C@H]2[C@H](OC(=O)[C@]34CCC(C)(C)C[C@H]3C3=CC[C@@H]5[C@@]6(C)C[C@H](O)[C@H](O[C@@H]7O[C@H](CO)[C@@H](O)[C@H](O)[C@H]7O)C(CO)(CO)[C@@H]6CC[C@@]5(C)[C@]3(C)C[C@H]4O)OC[C@H](O)[C@@H]2O)[C@H](O)[C@H](O)[C@H]1O[C@@H]1OC[C@@H](O)[C@H](O[C@@H]2OC[C@](O)(CO)[C@H]2O)[C@H]1O [platycodin D]
[1]
  dissociation of HSP90–CDC37 complex: allosterically dissociate the HSP90–CDC37 complex

## C=CCNC1=C2C[C@@H](C)C[C@H](OC)[C@H](O)[C@@H](C)/C=C(\C)[C@H](OC(N)=O)[C@@H](OC)/C=C\C=C(/C)C(=O)NC(=CC1=O)C2=O [17-AAG, 17-N-allylamino-17-demethoxygeldanamycin, reference compound]
[2]; HCT116, 500 nM 17-AAG + 500 nM braftide, immunoblot, n = 3
  CRAF degradation and MAPK signaling, combination: significant degradation of CRAF kinase and downregulation of MAPK signaling
[2]; HCT116, 500 nM single agent, immunoblot
  inhibition by monotherapy at 500 nM: Neither 17-AAG nor braftide monotherapy exhibited obvious inhibition
[2]; HCT116, 17-AAG alone, 16 h, immunoblot
  concentration at which CRAF kinase level is depleted, 17-AAG monotherapy: 2 µM
[3]
  EC50: > 5 µM
[4]
  cytotoxicity in clinical trials: its clinical trials faced challenges because of high cytotoxicity

## CC(C)(C)c1nc(-c2cccc(NS(=O)(=O)c3c(F)cccc3F)c2F)c(-c2ccnc(N)n2)s1 [dabrafenib]
[5]
  paradoxical activation of downstream ERK: can lead to paradoxical activation of downstream ERK under certain conditions

## COC(=O)N[C@@H](C)CNc1nccc(-c2cn(C(C)C)nc2-c2cc(Cl)cc(NS(C)(=O)=O)c2F)n1 [encorafenib]
[5]
  paradoxical activation of downstream ERK: can lead to paradoxical activation of downstream ERK under certain conditions

## Biotin-GRKKRRQRRRPQ-miniPEG-SxQHDNIVKY [BTN–JAK2, biotinylated control peptide derived from the αC helix–β4 loop of the JAK2 kinase, same TAT-miniPEG fragment, reference compound]
[6]
  co-immunoprecipitation of CDC37 with biotinylated peptide: did not coimmunoprecipitate BRAF, CDC37, or HSP90 under the same conditions
[7]
  co-immunoprecipitation of BRAF with biotinylated peptide: did not coimmunoprecipitate BRAF, CDC37, or HSP90 under the same conditions
[8]
  co-immunoprecipitation of HSP90 with biotinylated peptide: did not coimmunoprecipitate BRAF, CDC37, or HSP90 under the same conditions
[9]
  protein degradation and pERK levels with control peptide: did not induce protein degradation or reduce pERK levels

## CCCS(=O)(=O)Nc1ccc(F)c(C(=O)c2c[nH]c3ncc(-c4ccc(Cl)cc4)cc23)c1F [Vemurafenib, reference compound]
[10]
  NanoBiT BRAF–CDC37 interaction, vemurafenib: disrupted the interaction between BRAF and CDC37 in the NanoBiT assay
[5]
  paradoxical activation of downstream ERK: can lead to paradoxical activation of downstream ERK under certain conditions

## GRKKRRQRRRPQ-miniPEG-SLQHDNIVKY [TAT–JAK2, negative control peptide derived from the αC helix–β4 loop of the JAK2 kinase, reference compound]
[2]; HCT116, 4 h, Fig. S2A
  MAPK proteins with control peptide: MAPK proteins are unaffected by control peptide

## Biotin-GRKKRRQRRRPQ-miniPEG-TRHVNILxFM [BTN–braftide]
[6]
  co-immunoprecipitation of CDC37 with biotinylated peptide: coimmunoprecipitated CDC37, BRAF, and endogenous CRAF
[7]
  co-immunoprecipitation of BRAF with biotinylated peptide: coimmunoprecipitated CDC37, BRAF, and endogenous CRAF
[11]
  co-immunoprecipitation of endogenous CRAF with biotinylated peptide: coimmunoprecipitated CDC37, BRAF, and endogenous CRAF
[12]
  co-immunoprecipitation of AKT1 with biotinylated peptide: Neither AKT1 nor HSP90 was pulled down in this assay
[8]
  co-immunoprecipitation of HSP90 with biotinylated peptide: Neither AKT1 nor HSP90 was pulled down in this assay

## CC1=C[C@H](C)C[C@H](C)[C@H](Cc2cnco2)OC(=O)/C(C)=C\[C@H](C)C[C@H](C)[C@H](Cc2cnco2)OC1=O [conglobatin A]
[1]
  dissociation of HSP90–CDC37 complex: allosterically dissociate the HSP90–CDC37 complex

## GRKKRRQRRRPQ-miniPEG-THHVNILLFM [R/H peptide]
[2]; HCT116, braftide^R2H, 4 h, immunoblot
  protein degradation of BRAF, CRAF, MEK, and ERK: failed to induce protein degradation of BRAF, CRAF, MEK, and ERK
[2]; HCT116, braftide^R2H, 4 h, pMEK and pERK immunoblot
  impact on MAPK signaling: had no impact on MAPK signaling in HCT116 cells

B1: CDC37-myc-FLAG, Q16543 H20A; N22A; I23A (protein)
chain: MVDYSVWDHIEVSDDEDETAPAADTASLFRWRHQARVERMEQFQKEKEELDRGCRECKRKVAECQRKLKELEVAEGGKAELERLQAEAQQLRKEERSWEQKLEEMRKKEKSMPWNVDTLSKDGFSKSMVNTKPEKTEEDSEEVREQKHKTFVEKYEKQIKHFGMLRRWDDSQKYLSDNVHLVCEETANYLVIWCIDLEVEEKCALMEQVAHQTIVMQFILELAKSLKVDPRACFRQFFTKIKTADRQYMEGFNDELEAFKERVRGRAKLRIEKAMKEYEEEERKKRLGPGGLDPVEVYESLPEELQKCFDVKDVQMLQDAISKMDPTDAKYHMQRCIDSGLWVPNSKASEAKEGEEAGPGDPLLEAVPKTGDEKDVSV
[13]; HEK293 cells coexpressing BRAF-V5
  ratio to parent: 1.01
[13]; HEK293 cells coexpressing CRAF-HA
  ratio to parent: 0.91
